Measured values published in patent US20200163854A1, “LIFE-EXTENDING AGENT, ANTI-AGING AGENT, COSMETIC, AND FOOD/BEVERAGE COMPOSITION” (KYOTO UNIVERSITY, priority 2017, published 2020).
Where two headings read alike, the source gives them in different places.

Columns and labels:
[1] = system: Drosophila flies, premature aging strain (sod1[n1] mutants), male; conditions: vs control medium
Description: Mutants of adult Drosophila flies (male) containing Cu/Zn-SOD with reduced activity due to amino acid substitution (sod1[n1]) were bred in a plastic tube having a diameter of 25 mm, and fed with a simple medium (instant medium) for Drosophila that contains D-proline (D-Pro) at a concentration of 20, 60, 200, or 400 μg/ml, or L-proline (L-Pro) at a concentration of 400 μg/ml, followed by measuring the life span of the flies. […] For the control, a simple medium to which no D-Pro or L-Pro was added was used.
(§1) Mutants of adult Drosophila flies (male) containing Cu/Zn-SOD with reduced activity due to amino acid substitution (sod1[n1]) were bred in a plastic tube having a diameter of 25 mm, and fed with a simple medium (instant medium) for Drosophila that contains D-proline (D-Pro) at a concentration of 400 μg/ml, or D-aspartic acid (D-Asp) at a concentration of 60, 200, or 400 μg/ml, followed by measuring the life span of the flies. […] For the control, a simple medium to which no D-Pro or D-Asp was added was used.
as §1, with “D-hydroxyproline (D-HP)” for “D-aspartic acid (D-Asp)”, “D-HP” for “D-Asp”

[2] = system: Menin gene and Bach2 gene mRNA; conditions: 0.2 mg/ml in water, free intake, Day 495; compared to control group or L-proline group
Description: (§2) After euthanasia on Day 495, the spleen was removed and ground through a 0.45-μM strainer to prepare a suspension of spleen-derived cells (FIG. 4). After centrifugation at 1000 g for 5 minutes, the supernatant was removed by suction. Thereafter, 2 ml of ammonium chloride hemolytic agent (distilled water containing 8.99 mg/ml of NH4Cl, 1 mg/ml of KHCO3, and 37 μg/ml of EDTA4Na) was added to the cell pellets, followed by suspension. The resulting product was then allowed to stand at room temperature for 2 minutes. Subsequently, 10 ml of RPMI 1640 medium with 10% FBS was added thereto, the mixture was centrifuged at 1000 g for 5 minutes, and the supernatant was removed by suction. Then, 5 ml of RPMI 1640 medium with 10% FBS was added thereto to prepare a cell suspension (spleen-derived mononuclear cells).
Total RNA was extracted from 1×10^5 spleen-derived mononuclear cells of Example 4 using an RNeasy Mini Kit, produced by Qiagen. […] The mRNA levels of the Menin gene and the Bach2 gene were quantified as a ratio relative to the β-actin gene mRNA level, and calculated taking the value of the spleen-derived mononuclear cells of the control group as 1.

[3] = system: spleen-derived mononuclear cells (T cells with senescence marker); conditions: 0.2 mg/ml in water, free intake, Day 495; compared to control group or L-proline group
Description: as §2
After placing 1×10^6 spleen-derived mononuclear cells of Example 4 into a 1.5-ml Eppendorf tube, centrifugation was performed at 900 g for 5 minutes. Then, the supernatant was removed by suction, and 50 μl of FACS buffer (PBS(−) in which 0.5% BSA, 0.01% NaNO, and 1 mM EDTA were dissolved) was added thereto. Thereafter, incubation was performed on ice for 20 minutes with an FITC-labeled mouse anti-CD27 antibody (NOVUS; NPB-1-44021) and a PE-labeled mouse anti-CD62L antibody (ABGENT; ATB10190). […]

[4] = mixed with feed at 60, 200 or 400 μg/ml

O=C(O)[C@H]1C[C@H](O)CN1 [D-hydroxyproline]
life span of aging-promoting adult Drosophila flies ([1]; mixed with feed at 400 μg/ml): extends the life span | life span of aging-promoting adult Drosophila flies [1, 4]: extended the life span of Drosophila flies in a concentration-dependent manner

O=C(O)[C@H]1CCCN1 [D-proline]
mRNA expression of the Bach2 gene (ratio to β-actin, control = 1) [2]: higher mRNA expression | mRNA expression of the Menin gene (ratio to β-actin, control = 1) [2]: higher mRNA expression | life span of aging-promoting adult Drosophila flies ([1]; mixed with feed at 400 μg/ml): significantly higher effect | life span of aging-promoting adult Drosophila flies ([1]; mixed with feed at 20, 60, 200 or 400 μg/ml): dose-dependently extends the life span | number of T cells with a senescence marker of CD62-negative or CD27-negative [3]: significantly reduced number

O=C(O)[C@@H]1CCCN1 [L-proline, reference compound]
life span of aging-promoting adult Drosophila flies ([1]; mixed with feed at 400 μg/ml): no effect

N[C@H](CC(=O)O)C(=O)O [D-aspartic acid]
life span of aging-promoting adult Drosophila flies ([1]; mixed with feed at 400 μg/ml): extends the life span | life span of aging-promoting adult Drosophila flies [1, 4]: extended the life span of Drosophila flies in a concentration-dependent manner
